According to patent publication US7186695B2 (priority 2001, dated 2007):
“Also recorded” adds a separate entry of the source.

Key:
Thioredoxin = target: T1, Thioredoxin (Homo sapiens, UniProt P10599); assay: Inhibition of thioredoxin-mediated reduction of 70 kDa fibronectin fragment; assay type: biochemical; conditions: 1 μM thioredoxin, 10 minutes
T1 construct: purchased American Diagnostica, Greenwich, Conn; host or cells: E. coli
T1 sequence (P10599 1-105): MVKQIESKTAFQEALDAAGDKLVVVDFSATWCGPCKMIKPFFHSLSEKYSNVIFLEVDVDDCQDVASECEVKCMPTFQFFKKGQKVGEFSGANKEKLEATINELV
Method: FIG. 13. Inhibition of thioredoxin by GSAO. Thioredoxin (1 μM) was incubated with GSAO (0, 1 or 10 μM) for 10 minutes at room temperature in 20 mM Hepes, 0.14 M NaCl, pH 7.4 buffer. The 70 kDa fibronectin fragment (10 μg per mL) was added and incubated for 5 minutes at room temperature. The reactions were labelled with MPB (100 μM) for 10 minutes at 37° C. The MPB was quenched with GSH (200 μM) for 10 minutes at 37° C. followed by Iodoacetamide (400 μM) for 10 minutes at room temperature. The MPB-labelled 70 kDa fragment was resolved on 5–15% SDS-PAGE, transferred to PVDF membrane and the MPB detected by blotting with streptavidin peroxidase. The positions of Mr markers are shown at left.
It was observed that thioredoxin reduced one or more protein disulfide bonds in the 70 kDa N-terminal fragment of fibronectin.

Human T cells (A3.01) = assay: Membrane permeability, tritiated GSAO in cytosol; assay type: in vitro ADME; conditions: 50 μM GSAO
Method: (§1) Human T cells (A3.01) or adherent BAE cells were incubated with complete medium containing 50 μM GSAO and ˜100,000 counts per minute of tritiated GSAO for 1 or 72 hours. Tritiated GSAO was prepared exactly as described for GSAO except that glycine-2-^3H-glutathione (NEN, Boston, Mass.) was used in place of cold glutathione. The cells were washed and lysed by two cycles of freezing and thawing. The cytosolic constituents were collected by differential centrifugation (Ausbel et al., 2000) and the tritiated GSAO was measured. Only 0.5% of the total tritiated GSAO was found in the T cell cytosol and 0.04% in the BAE cytosol after 1 hour. Moreover, only 4.5% of the GSAO penetrated the T cell membrane after 72 hours of culture.

[1] = tested on: adjuvant-induced arthritis, rat ankles; conditions: in vivo
[2] = Binding of GSAO to dithiols, loss of thiols in DTNB assay; conditions: errors are 1 SD, read-out: Dissociation Constant
Method: FIG. 12. Interaction of GSAO with synthetic. Deptide and protein dithiols. DMP (A) (15 μM), 6,8-thioctic acid (B) ([…]), dithiothreitol (C) (8.5 μM), TrpCysGlyProCysLys (D) (4.6 μM), TrpCysGlyHisCysLys (E) (5.5 μM) or thioredoxin (F) (4.1 μM corresponding to 20.6 μM thiols) was incubated with GSAO (0–56 μM) for 10 minutes. DTNB (950 μM) was then added and the reactions incubated for a further 10 minutes. The concentration of thiol in the reactions was determined from the absorbance of the TNB dianion at 412 nm. The solid lines represent the best non-linear least squares fit of the data to Equation 1 (A to E) or Equation 2 (F) and have been drawn using the parameter estimates in Table 1. […]
(§2) A stock solution of DMP (5 μL, 50 μmol) was dissolved in DMSO (995 μL), giving a concentration of 50 mM DMP. […] The activity of the arsenical could then be determined by the titration of varying amounts of arsenical against the DMP working solution (10 μL) in a 96-well microbitre plate, with the total volume made up to 195 μL by addition of buffer. […] The absorbance at 412 nm due to the formation of the TNB dianion was measured using a Molecular Devices Thermomax Plus (Palo Alto, Calif.) microplate reader. […]
(§3) Binding of GSAO to dithiols was measured from loss of thiols using the DTNB assay described above. […]

[3] = tested on: adjuvant-induced arthritis; conditions: rat, in vivo
adherent BAE cells = assay: Membrane permeability, tritiated GSAO in cytosol; assay type: in vitro ADME, bovine; conditions: 50 μM GSAO, 1 hour
Method: as §1

[4] = Binding of GSAO to dithiols, loss of thiols in DTNB assay
Method: FIG. 11. Titration of DMP or cysteine with GSAO. DMP (15 μM corresponding to 30 μM thiols) is or cysteine (28 μM) was incubated with GSAO (0–50 μM) for 10 minutes. DTNB (950 μM) was then added and the reactions incubated for a further 10 minutes. The concentration of thiol in the reactions was determined from the absorbance of the TNB dianion at 412 nm.
FIG. 12. Interaction of GSAO with synthetic. Deptide and protein dithiols. DMP (A) (15 μM), 6,8-thioctic acid (B) ([…]), dithiothreitol (C) (8.5 μM), TrpCysGlyProCysLys (D) (4.6 μM), TrpCysGlyHisCysLys (E) (5.5 μM) or thioredoxin (F) (4.1 μM corresponding to 20.6 μM thiols) was incubated with GSAO (0–56 μM) for 10 minutes. […] The concentration of thiol in the reactions was determined from the absorbance of the TNB dianion at 412 nm. […]
as §2, §3

[5] = Interaction of GSAO with synthetic, peptide and protein dithiols (summary); assay type: binding; conditions: units printed within the range; read-out: dissociation constants, range over all dithiols
Method: FIG. 12. Interaction of GSAO with synthetic. Deptide and protein dithiols. DMP (A) (15 μM), 6,8-thioctic acid (B) ([…]), dithiothreitol (C) (8.5 μM), TrpCysGlyProCysLys (D) (4.6 μM), TrpCysGlyHisCysLys (E) (5.5 μM) or thioredoxin (F) (4.1 μM corresponding to 20.6 μM thiols) was incubated with GSAO (0–56 μM) for 10 minutes. DTNB (950 μM) was then added and the reactions incubated for a further 10 minutes. The concentration of thiol in the reactions was determined from the absorbance of the TNB dianion at 412 nm. The solid lines represent the best non-linear least squares fit of the data to Equation 1 (A to E) or Equation 2 (F) and have been drawn using the parameter estimates in Table 1. The dotted line in part A represents a simulated titration assuming an infinite affinity of GSAO for the dithiol. GSAO bound to both synthetic, peptide and protein dithiols with dissociation constants in the range 130 nM to 1.4 μM.
Binding of GSAO to dithiols was measured from loss of thiols using the DTNB assay described above. The dissociation constant, Kd, for GSAO binding to dithiols was determined by incubating increasing concentrations of GSAO, I, with a fixed dithiol concentration, [S]T, and measuring the remaining dithiol using DTNB. Note that the concentration of dithiol equals half the TNB concentration. […]

## NC(CCC(=O)NC(CSCC(=O)Nc1ccc([As]=O)cc1)C(=O)NCC(=O)O)C(=O)O (stereo not shown) [GSAO, 4-(N-(S-glutathionylacetyl)amino)-phenylarsenoxide]
Thioredoxin; 1 μM GSAO
  inhibition at 1 µM: ~50%
Thioredoxin; 10 μM GSAO
  inhibition of thioredoxin activity: completely inhibited
Human T cells (A3.01); 1 hour
  total tritiated GSAO found in the cytosol: 0.5%
Human T cells (A3.01); 72 hours of culture
  GSAO that penetrated the T cell membrane: 4.5%
[1]
  pannus formation: significantly reduced; also recorded: little to no pannus formation
  periarticular inflammation (density of inflammatory cells): significantly reduced; also recorded: almost no inflammatory cells
  signs of new bone formation (periosteal reaction): none
[2]; ring size 6
  Kd: 200 ± 50 nM
[2]; ring size 7
  Kd: 420 nM
[3]
  development of arthritis measured by arthritis severity score, gait, paw volume or weight loss: effectively blocked
  signs or symptoms of toxicity for the rats: no signs or symptoms of toxicity
[3]; 2 mg/kg
  weight gain, GSCA vs GSAO treated rats: no difference in weight gain
Adherent BAE cells
  total tritiated GSAO found in the cytosol: 0.04%
[4]; DMP 15 μM, GSAO 0–50 μM, 10 minutes
  interaction of GSAO with DMP in DTNB titration: bound to DMP and prevented interaction of the dithiol with DTNB
[4]; ring size 5, errors are 1 SD, read-out: Dissociation Constant
  Kd: 130 nM
[5]
  Kd: 130 to 1400 nM
